Test results: the NIST ThermoML archive (doi:10.1016/j.tca.2008.12.007)

Conditions: 101.33 kPa, Liquid, Vibrating tube method

C1CCCNCC1 [azacycloheptane]
Conditions | mass density [kg/m3]
273.16 K | 898.81
273.66 K | 898.36
274.16 K | 897.92
274.66 K | 897.48
275.16 K | 897.04
275.66 K | 896.6
276.16 K | 896.16
276.66 K | 895.72
277.16 K | 895.28
277.66 K | 894.84
278.16 K | 894.4
278.66 K | 893.96
279.16 K | 893.51
279.66 K | 893.07
280.16 K | 892.63
280.66 K | 892.19
281.16 K | 891.75
281.66 K | 891.31
282.16 K | 890.87
282.66 K | 890.42
283.16 K | 889.98
283.66 K | 889.54
284.16 K | 889.1
284.66 K | 888.66
285.15 K | 888.22
285.66 K | 887.77
286.16 K | 887.33
286.66 K | 886.89
287.16 K | 886.45
287.66 K | 886
288.16 K | 885.56
288.66 K | 885.12
289.16 K | 884.68
289.66 K | 884.23
290.16 K | 883.79
290.66 K | 883.35
291.15 K | 882.91
291.65 K | 882.47
292.16 K | 882.03
292.65 K | 881.58
293.15 K | 881.15
293.65 K | 880.71
294.15 K | 880.26
294.65 K | 879.82
295.15 K | 879.38
295.65 K | 878.94
319.15 K | 858.06
319.65 K | 857.61
320.15 K | 857.17
320.65 K | 856.72
321.15 K | 856.28
321.65 K | 855.83
322.15 K | 855.39
322.65 K | 854.94
323.15 K | 854.49
323.65 K | 854.05
324.15 K | 853.6
324.65 K | 853.15
325.15 K | 852.71
325.66 K | 852.26
326.16 K | 851.81
326.66 K | 851.37
327.15 K | 850.92
327.66 K | 850.47
328.16 K | 850.03
328.66 K | 849.58
329.16 K | 849.13
329.66 K | 848.69
330.16 K | 848.24
330.65 K | 847.79
331.16 K | 847.35
331.66 K | 846.9
332.15 K | 846.45
332.66 K | 846
333.16 K | 845.55
333.65 K | 845.11
334.16 K | 844.66
334.65 K | 844.21
335.16 K | 843.76
335.65 K | 843.31
336.16 K | 842.86
336.66 K | 842.42
337.16 K | 841.96
337.66 K | 841.52
338.16 K | 841.07
338.66 K | 840.62
339.16 K | 840.17
339.66 K | 839.72
340.16 K | 839.27
340.66 K | 838.82
341.16 K | 838.37
341.65 K | 837.92
